Laboratory results reported in US8962322B2, “Enhancers of induced pluripotent stem cell reprogramming” (City of Hope, priority 2012, dated 2015).

Columns and labels:
OG2 MEFs = experiment: iPSC derivation from 4F (OSKM)-transduced OG2 MEFs in iSF1 media (Oct4-GFP colonies); format: cell-based, mouse
Procedure: Recently, a serum-free media (iSF1) was developed to facilitate the generation of mouse iPSCs (39). The effect of compound OAC1 in the 4F-induced reprogramming was tested in iSF1 media. OG2 MEFs, derived from transgenic mice expressing the Oct4 promoter-driven GFP reporter (Oct4-GFP) (40), were transduced with retroviruses expressing the 4F reprogramming factors, Oct4, Sox2, Klf4, and c-Myc. The 4F-transduced cells were transferred to iSF1 media two days after viral transduction and this day was designated as day 0 (FIG. 3A). Treatment of compound OAC1 started on day 1 and lasted for 7 days. […] At day 5, a more than 3-fold increase in the number of GFP-positive colonies was detected in OAC1-treated, 4F-transduced cells (4F+OAC1), compared to vehicle-treated, 4F-transduced cells (FIG. 3B, C). […] The number of GFP-positive colonies in 4F-treated cells at day 8 (average of 200) was less than the number of GFP-positive colonies in 4F+OAC1-treated cells at day 5 (average of 350) (FIG. 3B, C).
iPSC Derivation in iSF1 Media: OG2 MEFs were seeded onto 6-well plates at the density of 3×10^4 cells per well in DMEM medium with 10% FBS, 0.1 mM NEAA, and 0.1 mM L-glutamine, 24 hr before transduction. Freshly prepared viruses of the 4F, Oct4, Sox2, c-Myc, and Klf4, were added to the cells. Two days after viral infection, the transduced OG2 MEFs were split into new 6-well plates with irradiated MEF feeders and cultured in iSF1 reprogramming media containing high glucose DMEM, 10% knockout serum, 0.5% N2, 5 ng/ml b-FGF, 2 mM L-glutamine, 0.1 mM 2-mercaptoethanol, 0.1 mM NEAA and 1000 U/ml of LIF. This day was defined as day 0. On day 1, 1 μM of each compound (OAC1, OAC2, and OAC3) was added to the 4F-transduced OG2 MEFs. Treatment was continued for 1 week. When iPSC colonies emerged, these colonies were picked for expansion on the irradiated MEF feeders in mouse ESC medium.

p53 = experiment: RT-PCR of p53 expression in treated MEFs; format: cell-based, mouse; settings: MEFs treated for two days
Procedure: Inhibition of the p53-p21 signaling increased reprogramming efficiency (26, 28-31, 41). To investigate whether compound OAC1 enhanced reprogramming efficiency by affecting this pathway, MEFs were treated with vehicle control or OAC1 and determined the expression level of p53 and p21 in the treated cells.
(§1) RT-PCR analysis: Total RNA was purified with Trizol reagent (Invitrogen). Reverse transcription was performed with 1 μg of RNA using Omniscript® Reverse Transcription Kit (Qiagen). Quantitative PCR was performed using iTaq SYBR Green Supermix with Rox (Bio-rad) in Applied Biosystem Step one plus real-time PCR system. […]

endogenous Nanog = experiment: RT-PCR of endogenous Nanog mRNA in treated MEFs; format: cell-based, mouse; settings: versus vehicle
Procedure: MEFs were treated with vehicle control or OAC 1 to test whether OAC 1 activates endogenous Oct4 and Nanog gene transcription. […] Oct4, Sox2, and Nanog are central to the transcriptional regulatory hierarchy for ESC pluripotency, forming the core transcriptional regulatory circuitry in ESCs (37). […] OAC1 activated Sox2 mRNA expression, along with Oct4 and Nanog (FIG. 61).
as §1

luciferase [1] = target: T1, luciferase (Photinus pyralis, UniProt P08659); experiment: inhibition of luciferase activity at 1 μM (applicant's observation)
From the text: OAC1 and related analogs belong to a structural class of 5-substituted pyrrolo[2,3-b]pyridine- and indole-based benzamides. Very little is reported about their biological activities. […] However, in a different assay called ATLAS (any target ligand affinity screen), no inhibition was detected (49).

luciferase [2] = target: T1, luciferase; settings: cited from earlier work

T1 sequence (P08659 whole entry): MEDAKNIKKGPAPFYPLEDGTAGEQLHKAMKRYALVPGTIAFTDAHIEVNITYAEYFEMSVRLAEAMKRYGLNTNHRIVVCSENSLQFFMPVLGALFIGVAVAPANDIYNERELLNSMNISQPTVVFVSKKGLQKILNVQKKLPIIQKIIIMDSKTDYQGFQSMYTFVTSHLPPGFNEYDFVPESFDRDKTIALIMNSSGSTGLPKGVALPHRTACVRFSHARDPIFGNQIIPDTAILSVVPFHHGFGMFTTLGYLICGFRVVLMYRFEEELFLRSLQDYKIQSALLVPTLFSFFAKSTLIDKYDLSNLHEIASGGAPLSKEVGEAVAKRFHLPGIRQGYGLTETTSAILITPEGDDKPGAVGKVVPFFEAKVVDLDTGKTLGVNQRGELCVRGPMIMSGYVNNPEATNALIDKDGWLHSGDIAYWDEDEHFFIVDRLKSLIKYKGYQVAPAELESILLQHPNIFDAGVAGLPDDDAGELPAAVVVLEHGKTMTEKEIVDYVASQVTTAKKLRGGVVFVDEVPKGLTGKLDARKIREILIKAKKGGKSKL

**Q.** With `O=C(Nc1cc2cc[nH]c2cn1)c1ccccc1` [OAC1, N-(1H-6-azaindol-5-yl)benzamide] as the compound, how does the Colony numbers (OG2 MEFs; MEFs in iSF1 media, OSKM, seeding 3 × 10^4, day 8, 1 μM compound) read?
**A.** The Colony numbers was 800.

**Q.** And the Reprogramming efficiency (OG2 MEFs; MEFs in iSF1 media, OSKM, seeding 3 × 10^4, day 8, colony numbers divided by seeding cell numbers)?
**A.** The Reprogramming efficiency was 2.75%.

**Q.** What about the “day at which GFP+ colonies started to appear” value (OG2 MEFs; iSF1 media, 4F+compound, days after transfer to iSF1 media) of the same compound?
**A.** Its value is 3 days.

**Q.** And the “increase in the number of GFP-positive colonies compared to vehicle-treated 4F-transduced cells” value (OG2 MEFs; iSF1 media, day 5)?
**A.** The value was “more than 3 fold”.

**Q.** And the “number of GFP-positive colonies (average)” value (OG2 MEFs; iSF1 media, day 5)?
**A.** Its value is 350.

**Q.** And the “reprogramming efficiency of 4F+compound relative to 4F alone in the initial Yamanaka study” value (OG2 MEFs; not a direct comparison)?
**A.** The value was “more than 20 fold”.

**Q.** What about the “p53 expression level versus DMSO” value (p53) of the same compound?
**A.** The value was “no significant difference”.

**Q.** What about the “endogenous Nanog mRNA expression” value (endogenous Nanog) of the same compound?
**A.** The value was “activated”.

**Q.** What about the “inhibition of luciferase activity” value (luciferase [1]) of the same compound?
**A.** Its value is “no inhibition”.

**Q.** And the “inhibition in ATLAS assay” value (luciferase [2])?
**A.** The value was “no inhibition”.
